Like-named read-outs stand apart in the source and are kept apart here.
Tests used:
[1] = water, cited from earlier work
HTLV-III/LAV = conditions: H9 cells; Schaffner et al. 1986; cited from earlier work
human red blood cells = experiment: Lysis of human red blood cells (hemoglobin release at 550 nm); format: cell-based; conditions: SLS present in F-SPA-222
Experimental: The human RBCs were incubated at 37° C. for 45 min. with ( X) free-SPA-222, (Δ) sodium lauryl sulfate, ( .circle. ) free SPA-160, ( .circle. ) liposomal SPA-160 (L-SPA-160) in liposomes composed of DMPC:DMPG (7:3), ( ) L-SPA-160 in liposomes composed of DMPC:DMPG+cholesterol (9:1) or ( ) L-SPA-160 in liposomes composed of DMPC:DMPG+ergosterol (9:1)
Lysis of human red blood cells (HRBCs) was quantitated by measuring the release of hemoglobin in the supernatants at 550 nm, as described previously (Mehta et al., Biochim. Biophys, Acta., Vol. 770, pp. 230-234 (1984)). Various doses of L-SPA were incubated with fresh washed human RBCs at 37° C. for 45 minutes,24 hr, 48 hr and 96 hr.
Lysis of HRBCs was quantitated by measuring the release of hemoglobin in the supernatants at 550 nm as previously described (Mehta et al., (1984) Biochem. Biophys. Acts, 770:230). Various doses of L-SPA-160 were incubated with fresh washed HRBCs at 37° C. for 45 minutes, 24, 48 and 96 hrs. Free-SPA-222, stock dissolved in water and diluted with isotonic PBS was added to the assay. F-SPA-160 as DMFA solution diluted with isotonic PBS was also used as a control and contained 3% DMFA at a final concentration of drug at 300 ug ml. Appropriate solvent controls and empty liposomes were also included in each experiment. […]

[2] = compared with partricin; cited from earlier work

Molecule: C[C@@H]1[C@H](O)[C@@H](C)/C=C/C=C/C=C/C=C/C=C/C=C/C=C/[C@H](O[C@@H]2O[C@H](C)[C@@H](O)[C@H](N)[C@@H]2O)C[C@@H]2O[C@](O)(C[C@@H](O)C[C@@H](O)[C@H](O)CC[C@@H](O)C[C@@H](O)CC(=O)O[C@H]1C)C[C@H](O)[C@H]2C(=O)O [Amphotericin B]
- Aqueous solubility (in words) [1]: insoluble in water
- Inhibition of HTLV-III/LAV replication (in words) (HTLV-III/LAV): inhibited

Molecule: C[C@@H]1[C@H](O)[C@@H](C)/C=C/C=C/CC/C=C/C=C/C=C/C=C/C(O[C@H]2O[C@H](C)[C@@H](O)[C@H](N)[C@@H]2O)CC2O[C@](O)(CC(O)C(O)CCC(O)CC(O)CC(O)CC(=O)O[C@H]1C)CC(O)C2C(=O)O (some centres unmarked) [Nystatin]
- Aqueous solubility (in words) [1]: aqueous insolubility

Molecule: CCCCCCCCCCCCOS(=O)(=O)[O-].[Na+] [SLS, sodium lauryl sulphate]
- Share of F-SPA-222 RBC toxicity associated with SLS (human red blood cells): Fifty percent

Molecule: COC(=O)[C@H]1[C@@H]2C[C@@H](O[C@@H]3O[C@H](C)[C@@H](O)[C@H](N)[C@@H]3O)/C=C/C=C/C=C/C=C/C=C/C=C/C=C/[C@H](C)[C@@H](O)[C@@H](C)[C@H](C)OC(=O)C[C@H](O)C[C@H](O)CC[C@@H](O)[C@H](O)C[C@H](O)C[C@](O)(C[C@@H]1O)O2 [amphotericin B methyl ester ascorbate]
- Inhibition of HTLV-III/LAV replication (in words) (HTLV-III/LAV): inhibited

Molecule: Mepartricin
- Aqueous solubility (in words) [1]: low aqueous solubility
- Aqueous solubility (in words) ([1]; listed as mepartricin): substantially water-insoluble
- Toxicity to animals relative to partricin (in words) [2]: much less toxic to animals than partricin
